In the supplement of paper PMC10883282:
± gives the standard deviation of the averaged measurements.

Columns and labels:
Assay in all cases: relative viability vs DMSO control (72 h) (fraction); higher = more viable cells
A204 = system: A204
Summary of the method: (§1)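 Sarcoma cell lines in 384-well plates, seeded to reach 80–90% confluence, were given compound after 24 h and kept 72 h at 37 °C, 5% CO2, with 0.1% DMSO vehicle and a 5 µM positive control. Relative viability came from ATPLite as percent growth, averaged over up to triplicate wells. On the rescaled values, 1 equals full and 0 equals none.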

G401 = system: G401
Summary of the method: as §1

HS729 = system: HS729
Summary of the method: as §1

KHOS-NP = system: KHOS-NP
Summary of the method: as §1

MES-SA = system: MES-SA
Summary of the method: as §1

RD = system: RD
Summary of the method: as §1

SK-ES-1 = system: SK-ES-1
Summary of the method: as §1

SK-LMS-1 = system: SK-LMS-1
Summary of the method: as §1

SW684 = system: SW684
Summary of the method: as §1

SW872 = system: SW872
Summary of the method: as §1

SYO-1 = system: SYO-1
Summary of the method: as §1

VA-ES-BJ = system: VA-ES-BJ
Summary of the method: as §1

COc1cc2nccc(Oc3ccc(NC(=O)NC4CC4)c(Cl)c3)c2cc1C(N)=O [Lenvatinib]
Settings | relative viability
A204, 0.00017 µM | 1 ± 0.045
A204, 0.00051 µM | 1.04 ± 0.068
A204, 0.00152 µM | 1.03 ± 0.08
A204, 0.00457 µM | 1.02 ± 0.023
A204, 0.01372 µM | 0.79 ± 0.05
A204, 0.04115 µM | 0.551 ± 0.04
A204, 0.1235 µM | 0.406 ± 0.046
A204, 0.3704 µM | 0.345 ± 0.0098
A204, 1.111 µM | 0.267 ± 0.038
A204, 3.333 µM | 0.186 ± 0.0089
A204, 10 µM | 0.167 ± 0.018
G401, 0.00017 µM | 0.992 ± 0.036
G401, 0.00051 µM | 0.981 ± 0.017
G401, 0.00152 µM | 1.01 ± 0.018
G401, 0.00457 µM | 0.982 ± 0.025
G401, 0.01372 µM | 1.006 ± 0.0088
G401, 0.04115 µM | 0.974 ± 0.04
G401, 0.1235 µM | 0.919 ± 0.04
G401, 0.3704 µM | 0.848 ± 0.022
G401, 1.111 µM | 0.55 ± 0.021
G401, 3.333 µM | 0.434 ± 0.017
G401, 10 µM | 0.357 ± 0.033
HS729, 0.00017 µM | 1.01 ± 0.039
HS729, 0.00051 µM | 1.07 ± 0.062
HS729, 0.00152 µM | 1.04 ± 0.046
HS729, 0.00457 µM | 1.04 ± 0.02
HS729, 0.01372 µM | 1.016 ± 0.0094
HS729, 0.04115 µM | 1.014 ± 0.0094
HS729, 0.1235 µM | 0.945 ± 0.027
HS729, 0.3704 µM | 0.833 ± 0.025
HS729, 1.111 µM | 0.702 ± 0.028
HS729, 3.333 µM | 0.621 ± 0.028
HS729, 10 µM | 0.542 ± 0.036
KHOS-NP, 0.00017 µM | 1.07 ± 0.045
KHOS-NP, 0.00051 µM | 1.04 ± 0.012
KHOS-NP, 0.00152 µM | 1.05 ± 0.016
KHOS-NP, 0.00457 µM | 1.07 ± 0.018
KHOS-NP, 0.01372 µM | 1.08 ± 0.021
KHOS-NP, 0.04115 µM | 1.08 ± 0.011
KHOS-NP, 0.1235 µM | 1.06 ± 0.03
KHOS-NP, 0.3704 µM | 1.091 ± 0.0063
KHOS-NP, 1.111 µM | 1.07 ± 0.0038
KHOS-NP, 3.333 µM | 1.09 ± 0.021
KHOS-NP, 10 µM | 1.08 ± 0.015
MES-SA, 0.00017 µM | 1.01 ± 0.019
MES-SA, 0.00051 µM | 0.958 ± 0.026
MES-SA, 0.00152 µM | 0.971 ± 0.021
MES-SA, 0.00457 µM | 0.9651 ± 0.0046
MES-SA, 0.01372 µM | 0.942 ± 0.021
MES-SA, 0.04115 µM | 0.939 ± 0.02
MES-SA, 0.1235 µM | 0.964 ± 0.051
MES-SA, 0.3704 µM | 0.936 ± 0.022
MES-SA, 1.111 µM | 0.765 ± 0.032
MES-SA, 3.333 µM | 0.597 ± 0.044
MES-SA, 10 µM | 0.454 ± 0.14
RD, 0.00017 µM | 0.985 ± 0.07
RD, 0.00051 µM | 0.993 ± 0.08
RD, 0.00152 µM | 1.04 ± 0.052
RD, 0.00457 µM | 1.04 ± 0.042
RD, 0.01372 µM | 1.02 ± 0.078
RD, 0.04115 µM | 1.02 ± 0.063
RD, 0.1235 µM | 1.04 ± 0.026
RD, 0.3704 µM | 1.047 ± 0.0078
RD, 1.111 µM | 1.04 ± 0.039
RD, 3.333 µM | 1.08 ± 0.027
RD, 10 µM | 0.984 ± 0.062
SK-ES-1, 0.00017 µM | 0.985 ± 0.02
SK-ES-1, 0.00051 µM | 1.01 ± 0.05
SK-ES-1, 0.00152 µM | 0.9845 ± 0.0066
SK-ES-1, 0.00457 µM | 0.958 ± 0.065
SK-ES-1, 0.01372 µM | 0.979 ± 0.066
SK-ES-1, 0.04115 µM | 0.938 ± 0.026
SK-ES-1, 0.1235 µM | 0.911 ± 0.074
SK-ES-1, 0.3704 µM | 0.881 ± 0.019
SK-ES-1, 1.111 µM | 0.791 ± 0.061
SK-ES-1, 3.333 µM | 0.689 ± 0.025
SK-ES-1, 10 µM | 0.593 ± 0.032
SK-LMS-1, 0.00017 µM | 1.02 ± 0.035
SK-LMS-1, 0.00051 µM | 1.01 ± 0.037
SK-LMS-1, 0.00152 µM | 1.04 ± 0.023
SK-LMS-1, 0.00457 µM | 1.05 ± 0.029
SK-LMS-1, 0.01372 µM | 0.998 ± 0.059
SK-LMS-1, 0.04115 µM | 1.04 ± 0.05
SK-LMS-1, 0.1235 µM | 0.997 ± 0.046
SK-LMS-1, 0.3704 µM | 1.04 ± 0.032
SK-LMS-1, 1.111 µM | 0.98 ± 0.033
SK-LMS-1, 3.333 µM | 0.953 ± 0.033
SK-LMS-1, 10 µM | 0.972 ± 0.049
SW684, 0.00017 µM | 1.13 ± 0.024
SW684, 0.00051 µM | 1.12 ± 0.08
SW684, 0.00152 µM | 1.14 ± 0.015
SW684, 0.00457 µM | 1.133 ± 0.0058
SW684, 0.01372 µM | 1.13 ± 0.012
SW684, 0.04115 µM | 1.13 ± 0.059
SW684, 0.1235 µM | 1.11 ± 0.049
SW684, 0.3704 µM | 1.14 ± 0.028
SW684, 1.111 µM | 1.16 ± 0.042
SW684, 3.333 µM | 1.19 ± 0.0064
SW684, 10 µM | 1.11 ± 0.043
SW872, 0.00017 µM | 1.07 ± 0.051
SW872, 0.00051 µM | 1.1 ± 0.02
SW872, 0.00152 µM | 1.08 ± 0.05
SW872, 0.00457 µM | 1.07 ± 0.024
SW872, 0.01372 µM | 1.05 ± 0.025
SW872, 0.04115 µM | 1.05 ± 0.054
SW872, 0.1235 µM | 1.03 ± 0.036
SW872, 0.3704 µM | 1.05 ± 0.047
SW872, 1.111 µM | 1.06 ± 0.043
SW872, 3.333 µM | 1.05 ± 0.043
SW872, 10 µM | 0.953 ± 0.01
SYO-1, 0.00017 µM | 1.07 ± 0.032
SYO-1, 0.00051 µM | 1.02 ± 0.065
SYO-1, 0.00152 µM | 1.02 ± 0.06
SYO-1, 0.00457 µM | 0.9627 ± 0.0016
SYO-1, 0.01372 µM | 0.864 ± 0.027
SYO-1, 0.04115 µM | 0.721 ± 0.029
SYO-1, 0.1235 µM | 0.606 ± 0.013
SYO-1, 0.3704 µM | 0.504 ± 0.033
SYO-1, 1.111 µM | 0.472 ± 0.029
SYO-1, 3.333 µM | 0.459 ± 0.024
SYO-1, 10 µM | 0.432 ± 0.017
VA-ES-BJ, 0.00017 µM | 1.07 ± 0.011
VA-ES-BJ, 0.00051 µM | 1.06 ± 0.017
VA-ES-BJ, 0.00152 µM | 1.08 ± 0.021
VA-ES-BJ, 0.00457 µM | 1.1 ± 0.022
VA-ES-BJ, 0.01372 µM | 1.12 ± 0.015
VA-ES-BJ, 0.04115 µM | 1.11 ± 0.037
VA-ES-BJ, 0.1235 µM | 1.13 ± 0.082
VA-ES-BJ, 0.3704 µM | 1.13 ± 0.083
VA-ES-BJ, 1.111 µM | 1.15 ± 0.043
VA-ES-BJ, 3.333 µM | 1.118 ± 0.0078
VA-ES-BJ, 10 µM | 1.04 ± 0.068
